In paper PMC11345841, “Exploring 2-Sulfonylpyrimidine Warheads as Acrylamide Surrogates for Targeted Covalent Inhibition: A BTK Story” (Journal of Medicinal Chemistry, 2024):
Like-named read-outs stand apart in the source and are kept apart here.

Columns and labels:
[1] = target: T1, KIT(V559D,T670I) (Homo sapiens, UniProt P10721, T670I/V559D); test: KINOMEscan ScanTK; assay type: binding
T1 construct: purchased Eurofins DiscoverX KINOMEscan (scanTK)

[2] = target: T2, CSK (Homo sapiens, UniProt P41240); test: KINOMEscan ScanTK; assay type: binding
T2 construct: purchased Eurofins DiscoverX KINOMEscan (scanTK)

[3] = test system: BTK Y223 phosphorylation; test: Immunoblotting, anti-IgM-induced signaling in OCI-LY7 cells; conditions: 500 nM, 1 h
[4] = target: T3, TXK (Homo sapiens, UniProt P42681); test: KINOMEscan ScanTK; assay type: binding
T3 construct: purchased Eurofins DiscoverX KINOMEscan (scanTK)
T3 sequence (P42681 1-527): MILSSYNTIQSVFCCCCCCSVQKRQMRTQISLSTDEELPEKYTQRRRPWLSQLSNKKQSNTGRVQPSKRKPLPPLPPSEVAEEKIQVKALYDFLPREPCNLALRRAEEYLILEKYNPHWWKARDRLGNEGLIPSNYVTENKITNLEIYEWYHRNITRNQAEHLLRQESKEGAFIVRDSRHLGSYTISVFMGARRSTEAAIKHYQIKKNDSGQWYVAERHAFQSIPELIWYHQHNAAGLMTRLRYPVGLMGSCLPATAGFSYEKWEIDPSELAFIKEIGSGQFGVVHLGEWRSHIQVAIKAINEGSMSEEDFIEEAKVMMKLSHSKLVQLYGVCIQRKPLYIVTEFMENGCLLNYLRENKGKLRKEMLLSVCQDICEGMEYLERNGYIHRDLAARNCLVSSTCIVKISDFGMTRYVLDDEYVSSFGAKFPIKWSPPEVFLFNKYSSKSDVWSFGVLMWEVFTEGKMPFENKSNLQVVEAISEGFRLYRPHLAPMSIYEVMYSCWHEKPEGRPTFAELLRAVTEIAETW

[5] = target: T4, FLT3(K663Q) (Homo sapiens, UniProt P36888, K663Q); test: KINOMEscan ScanTK; assay type: binding
T4 construct: purchased Eurofins DiscoverX KINOMEscan (scanTK)
T4 sequence (P36888 27-993 K663Q): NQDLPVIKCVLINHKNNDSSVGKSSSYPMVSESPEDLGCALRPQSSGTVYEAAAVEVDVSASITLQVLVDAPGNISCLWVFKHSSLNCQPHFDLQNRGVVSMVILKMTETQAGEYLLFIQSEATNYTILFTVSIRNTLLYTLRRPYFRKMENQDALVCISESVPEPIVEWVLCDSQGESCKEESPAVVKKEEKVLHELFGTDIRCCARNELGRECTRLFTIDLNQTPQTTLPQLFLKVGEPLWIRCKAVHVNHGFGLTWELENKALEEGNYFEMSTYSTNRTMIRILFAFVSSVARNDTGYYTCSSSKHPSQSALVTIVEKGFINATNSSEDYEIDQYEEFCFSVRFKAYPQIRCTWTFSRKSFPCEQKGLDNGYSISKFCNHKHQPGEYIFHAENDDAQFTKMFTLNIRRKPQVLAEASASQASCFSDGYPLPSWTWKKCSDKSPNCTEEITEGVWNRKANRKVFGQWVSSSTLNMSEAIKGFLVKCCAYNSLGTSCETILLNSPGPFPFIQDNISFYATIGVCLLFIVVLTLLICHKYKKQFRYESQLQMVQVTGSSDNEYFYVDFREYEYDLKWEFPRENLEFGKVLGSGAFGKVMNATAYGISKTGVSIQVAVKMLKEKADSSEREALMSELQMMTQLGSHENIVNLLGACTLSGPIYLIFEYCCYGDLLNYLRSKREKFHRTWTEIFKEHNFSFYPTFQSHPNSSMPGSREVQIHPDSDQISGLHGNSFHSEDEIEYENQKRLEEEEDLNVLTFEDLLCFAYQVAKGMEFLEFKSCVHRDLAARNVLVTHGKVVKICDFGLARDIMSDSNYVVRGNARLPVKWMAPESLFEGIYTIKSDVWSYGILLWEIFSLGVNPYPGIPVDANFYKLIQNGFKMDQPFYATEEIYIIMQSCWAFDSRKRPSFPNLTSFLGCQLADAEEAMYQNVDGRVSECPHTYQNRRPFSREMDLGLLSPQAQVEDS

[6] = target: T5, SRC (Homo sapiens, UniProt P12931); test: KINOMEscan ScanTK; assay type: binding
T5 construct: purchased Eurofins DiscoverX KINOMEscan (scanTK)
T5 sequence (P12931 whole entry): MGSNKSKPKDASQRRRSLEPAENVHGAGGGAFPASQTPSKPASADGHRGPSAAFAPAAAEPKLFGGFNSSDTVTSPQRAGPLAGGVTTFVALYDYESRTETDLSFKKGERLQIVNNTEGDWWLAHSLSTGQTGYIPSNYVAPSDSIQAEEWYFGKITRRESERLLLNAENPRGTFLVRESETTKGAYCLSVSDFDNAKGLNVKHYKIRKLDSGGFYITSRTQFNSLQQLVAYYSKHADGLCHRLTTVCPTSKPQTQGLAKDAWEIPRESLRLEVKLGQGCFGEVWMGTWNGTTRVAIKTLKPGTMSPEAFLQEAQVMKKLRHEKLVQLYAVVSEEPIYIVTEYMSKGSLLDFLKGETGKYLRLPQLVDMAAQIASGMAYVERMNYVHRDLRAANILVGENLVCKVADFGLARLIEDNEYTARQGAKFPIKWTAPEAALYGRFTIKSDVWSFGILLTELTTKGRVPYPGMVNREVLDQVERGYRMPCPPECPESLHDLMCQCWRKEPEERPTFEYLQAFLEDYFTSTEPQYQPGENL

[7] = target: T6, BTK (Homo sapiens, UniProt Q06187); test: KINOMEscan ScanTK; assay type: binding; conditions: for remaining binding at 1 µM: BTK; for inhibition at 1 µM: ScanTK
T6 construct: purchased Eurofins DiscoverX KINOMEscan (scanTK)
T6 sequence (Q06187 whole entry): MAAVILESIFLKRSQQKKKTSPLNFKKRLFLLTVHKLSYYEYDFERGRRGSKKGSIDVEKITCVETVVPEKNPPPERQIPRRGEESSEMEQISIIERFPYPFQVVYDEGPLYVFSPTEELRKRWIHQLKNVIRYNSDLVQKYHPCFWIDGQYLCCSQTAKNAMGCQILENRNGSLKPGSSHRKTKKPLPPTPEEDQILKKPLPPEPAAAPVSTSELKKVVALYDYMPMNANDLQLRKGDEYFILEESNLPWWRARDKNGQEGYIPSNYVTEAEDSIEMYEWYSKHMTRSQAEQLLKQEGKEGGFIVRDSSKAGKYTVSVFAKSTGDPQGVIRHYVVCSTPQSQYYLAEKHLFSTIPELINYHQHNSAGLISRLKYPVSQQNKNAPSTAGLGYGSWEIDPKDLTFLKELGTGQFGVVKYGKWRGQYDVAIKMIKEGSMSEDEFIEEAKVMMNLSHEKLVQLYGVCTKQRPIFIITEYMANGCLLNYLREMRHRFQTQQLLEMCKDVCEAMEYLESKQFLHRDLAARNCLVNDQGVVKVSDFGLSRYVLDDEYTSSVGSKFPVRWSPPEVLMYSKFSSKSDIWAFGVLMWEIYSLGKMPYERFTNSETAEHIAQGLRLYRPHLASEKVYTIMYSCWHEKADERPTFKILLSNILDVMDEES

[8] = target: T7, FGFR4 (Homo sapiens, UniProt P22455); test: KINOMEscan ScanTK; assay type: binding
T7 construct: purchased Eurofins DiscoverX KINOMEscan (scanTK)

[9] = target: T8, ROS1 (Homo sapiens, UniProt P08922); test: KINOMEscan ScanTK; assay type: binding; conditions: for %Control difference versus reference Ib at 1 µM: read-out: % difference (compound - Ib %Control)
T8 construct: purchased Eurofins DiscoverX KINOMEscan (scanTK)

[10] = target: T9, MET(Y1235D) (Homo sapiens, UniProt P08581, Y1235D); test: KINOMEscan ScanTK; assay type: binding
T9 construct: purchased Eurofins DiscoverX KINOMEscan (scanTK)
T9 sequence (P08581 25-1390 Y1235D): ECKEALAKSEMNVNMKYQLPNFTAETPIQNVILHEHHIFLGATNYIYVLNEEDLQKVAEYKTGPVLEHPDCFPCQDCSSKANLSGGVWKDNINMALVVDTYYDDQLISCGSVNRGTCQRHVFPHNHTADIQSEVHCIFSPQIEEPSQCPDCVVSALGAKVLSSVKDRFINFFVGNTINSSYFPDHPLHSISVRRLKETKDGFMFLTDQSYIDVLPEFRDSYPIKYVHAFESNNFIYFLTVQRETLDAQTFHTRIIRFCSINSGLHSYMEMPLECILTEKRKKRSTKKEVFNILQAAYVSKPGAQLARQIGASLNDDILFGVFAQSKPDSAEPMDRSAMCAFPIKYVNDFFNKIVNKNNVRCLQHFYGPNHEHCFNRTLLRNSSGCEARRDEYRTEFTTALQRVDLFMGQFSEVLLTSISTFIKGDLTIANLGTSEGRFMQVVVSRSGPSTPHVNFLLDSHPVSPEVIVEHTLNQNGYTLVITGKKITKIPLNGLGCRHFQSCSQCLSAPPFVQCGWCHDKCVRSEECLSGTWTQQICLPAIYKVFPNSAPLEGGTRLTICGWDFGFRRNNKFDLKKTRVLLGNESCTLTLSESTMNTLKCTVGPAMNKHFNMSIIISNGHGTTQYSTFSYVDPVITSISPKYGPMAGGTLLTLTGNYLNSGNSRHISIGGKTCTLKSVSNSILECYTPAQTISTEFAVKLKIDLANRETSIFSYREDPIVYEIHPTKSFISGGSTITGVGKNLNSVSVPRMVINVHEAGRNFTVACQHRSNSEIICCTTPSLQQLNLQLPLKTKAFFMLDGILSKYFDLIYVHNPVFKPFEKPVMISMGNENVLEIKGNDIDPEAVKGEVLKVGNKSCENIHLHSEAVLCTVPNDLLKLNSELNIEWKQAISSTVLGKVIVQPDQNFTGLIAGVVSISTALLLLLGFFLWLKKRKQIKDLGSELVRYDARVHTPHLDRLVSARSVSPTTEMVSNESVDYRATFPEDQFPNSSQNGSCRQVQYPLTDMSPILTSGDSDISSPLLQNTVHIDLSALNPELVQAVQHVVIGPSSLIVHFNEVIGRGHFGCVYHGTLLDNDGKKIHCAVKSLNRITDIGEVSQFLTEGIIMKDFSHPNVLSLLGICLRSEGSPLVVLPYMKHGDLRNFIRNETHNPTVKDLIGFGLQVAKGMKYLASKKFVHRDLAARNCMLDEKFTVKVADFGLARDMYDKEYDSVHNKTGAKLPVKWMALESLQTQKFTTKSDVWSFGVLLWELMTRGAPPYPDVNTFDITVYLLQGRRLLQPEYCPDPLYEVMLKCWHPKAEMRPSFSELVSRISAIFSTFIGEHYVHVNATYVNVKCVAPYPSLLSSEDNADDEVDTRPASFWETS

[11] = target: T10, EGFR(L747-S752del, P753S) (Homo sapiens, UniProt P00533, DEL747-752/P753S); test: KINOMEscan ScanTK; assay type: binding
T10 construct: purchased Eurofins DiscoverX KINOMEscan (scanTK)
T10 sequence (P00533 with tags, fused parts or gaps DEL747-752/P753S limits assumed): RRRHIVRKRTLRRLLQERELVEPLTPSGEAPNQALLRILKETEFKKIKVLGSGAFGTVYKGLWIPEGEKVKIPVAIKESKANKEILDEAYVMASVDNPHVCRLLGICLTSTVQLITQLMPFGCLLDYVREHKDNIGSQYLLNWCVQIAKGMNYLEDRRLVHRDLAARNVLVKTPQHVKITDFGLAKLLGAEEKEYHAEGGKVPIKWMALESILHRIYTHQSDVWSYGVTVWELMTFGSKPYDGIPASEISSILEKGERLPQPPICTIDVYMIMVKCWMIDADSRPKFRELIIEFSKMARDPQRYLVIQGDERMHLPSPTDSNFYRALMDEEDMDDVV

[12] = target: T11, RET(M918T) (Homo sapiens, UniProt P07949, M918T); test: KINOMEscan ScanTK; assay type: binding
T11 construct: purchased Eurofins DiscoverX KINOMEscan (scanTK)
T11 sequence (P07949 29-1114 M918T): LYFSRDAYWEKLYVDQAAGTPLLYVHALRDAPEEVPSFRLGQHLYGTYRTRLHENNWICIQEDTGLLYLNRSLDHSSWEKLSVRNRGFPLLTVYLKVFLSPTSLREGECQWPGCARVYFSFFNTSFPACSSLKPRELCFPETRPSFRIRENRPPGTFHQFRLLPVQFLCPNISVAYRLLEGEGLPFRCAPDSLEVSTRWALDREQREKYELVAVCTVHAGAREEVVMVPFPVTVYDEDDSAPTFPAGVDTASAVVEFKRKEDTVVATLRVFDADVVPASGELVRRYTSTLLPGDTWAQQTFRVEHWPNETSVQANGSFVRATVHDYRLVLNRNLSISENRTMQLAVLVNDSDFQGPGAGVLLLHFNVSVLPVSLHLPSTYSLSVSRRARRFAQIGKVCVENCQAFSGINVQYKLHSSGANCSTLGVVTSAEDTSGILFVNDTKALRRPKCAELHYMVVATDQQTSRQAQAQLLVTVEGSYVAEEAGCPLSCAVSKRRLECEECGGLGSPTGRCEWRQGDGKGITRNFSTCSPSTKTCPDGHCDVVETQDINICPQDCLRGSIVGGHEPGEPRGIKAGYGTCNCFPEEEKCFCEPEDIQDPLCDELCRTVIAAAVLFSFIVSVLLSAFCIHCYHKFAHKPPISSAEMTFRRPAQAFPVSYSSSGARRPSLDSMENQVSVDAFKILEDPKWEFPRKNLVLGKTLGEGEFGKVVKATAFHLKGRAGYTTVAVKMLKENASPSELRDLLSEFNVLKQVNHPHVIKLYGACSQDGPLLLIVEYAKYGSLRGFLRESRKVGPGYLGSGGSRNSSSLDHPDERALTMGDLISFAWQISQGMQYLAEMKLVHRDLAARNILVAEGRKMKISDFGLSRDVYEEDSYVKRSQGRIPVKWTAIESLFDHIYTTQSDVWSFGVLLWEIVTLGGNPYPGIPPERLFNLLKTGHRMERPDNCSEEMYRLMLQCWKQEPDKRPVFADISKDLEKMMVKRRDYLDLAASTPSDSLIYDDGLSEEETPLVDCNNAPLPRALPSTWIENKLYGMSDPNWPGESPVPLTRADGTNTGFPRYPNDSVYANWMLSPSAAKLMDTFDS

[13] = target: T12, KIT(V559D,V654A) (Homo sapiens, UniProt P10721, V559D/V654A); test: KINOMEscan ScanTK; assay type: binding
T12 construct: purchased Eurofins DiscoverX KINOMEscan (scanTK)
T12 sequence (P10721 26-976 V559D/V654A): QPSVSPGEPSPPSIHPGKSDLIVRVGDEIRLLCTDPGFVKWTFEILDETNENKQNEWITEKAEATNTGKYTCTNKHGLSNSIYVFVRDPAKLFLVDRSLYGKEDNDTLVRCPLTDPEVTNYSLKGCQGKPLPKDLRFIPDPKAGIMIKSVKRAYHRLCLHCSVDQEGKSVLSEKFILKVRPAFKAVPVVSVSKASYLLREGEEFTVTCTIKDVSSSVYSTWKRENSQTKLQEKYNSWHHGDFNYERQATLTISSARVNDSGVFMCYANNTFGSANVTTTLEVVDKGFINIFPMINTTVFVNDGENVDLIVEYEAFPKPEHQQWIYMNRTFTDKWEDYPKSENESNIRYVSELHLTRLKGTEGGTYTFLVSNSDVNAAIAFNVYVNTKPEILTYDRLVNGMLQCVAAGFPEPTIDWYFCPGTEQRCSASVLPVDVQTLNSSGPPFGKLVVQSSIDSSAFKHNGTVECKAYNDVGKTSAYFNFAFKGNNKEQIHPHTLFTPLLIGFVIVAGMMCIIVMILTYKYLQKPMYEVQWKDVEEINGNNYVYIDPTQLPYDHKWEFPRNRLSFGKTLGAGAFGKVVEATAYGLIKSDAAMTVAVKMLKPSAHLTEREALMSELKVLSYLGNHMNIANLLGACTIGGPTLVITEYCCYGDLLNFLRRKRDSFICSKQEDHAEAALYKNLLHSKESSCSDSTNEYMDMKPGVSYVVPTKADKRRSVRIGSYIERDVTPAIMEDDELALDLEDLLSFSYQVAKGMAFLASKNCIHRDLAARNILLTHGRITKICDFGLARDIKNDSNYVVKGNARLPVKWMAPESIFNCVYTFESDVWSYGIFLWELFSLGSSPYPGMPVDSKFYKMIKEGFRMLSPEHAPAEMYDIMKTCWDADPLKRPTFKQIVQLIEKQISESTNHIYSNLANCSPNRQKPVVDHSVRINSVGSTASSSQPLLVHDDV

[14] = @1000nM, read-out: % difference (compound - Ib %Control)

T1 sequence (P10721 26-976 V559D/T670I): as the sequence (P10721 26-976 V559D/V654A) above, with A629V, T645I counted along it

Row | difference in %Control versus compound Ib at 1 µM ([1]; @1000nM) [%] | remaining binding at 1 µM ([1]; @1000nM, read-out: %Control) [%] | remaining binding at 1 µM ([1]; read-out: %Control @1000nM) [%] | difference in %Control from reference compound Ib at 1 µM ([2]; @1000nM) [%] | remaining binding at 1 µM ([2]; @1000nM, read-out: %Control) [%] | remaining binding at 1 µM ([2]; read-out: %Control @1000nM) [%] | remaining binding at 1 µM ([4]; @1000nM, read-out: %Control) [%] | remaining binding at 1 µM ([4]; read-out: %Control @1000nM) [%] | difference in %Control from compound Ib at 1 µM ([5]; @1000nM) [%] | remaining binding at 1 µM ([5]; @1000nM, read-out: %Control) [%] | remaining binding at 1 µM ([5]; read-out: %Control @1000nM) [%] | remaining binding at 1 µM ([6]; @1000nM, read-out: %Control) [%] | remaining binding at 1 µM ([6]; read-out: %Control @1000nM) [%] | remaining binding at 1 µM [7, 14] [%] | remaining binding at 1 µM ([7]; @1000nM, read-out: %Control) [%] | remaining binding at 1 µM ([7]; read-out: %Control @1000nM) [%] | inhibition at 1 µM [7] [%] | difference in %Control from compound Ib at 1 µM ([8]; @1000nM) [%] | remaining binding at 1 µM ([8]; @1000nM, read-out: %Control) [%] | SMILES | anti-IgM-induced BTK Y223 phosphorylation [3] | further results
1 | -34 | 34 | 34 | 25.5 | 30 | 30 | 12 | 12 | 56 | 100 | 100 | 66 | 66 | 18 | 18 | 18 | 82 | -5 | 91 | CCOC(=O)c1cnc(S(C)(=O)=O)nc1N1CCC[C@@H](n2nc(-c3ccc(Oc4ccccc4)cc3)c3c(N)ncnc32)C1 [Compound 8c, Ethyl (R)-4-(3-(4-Amino-3-(4-phenoxyphenyl)-1H-pyrazolo[3,4-d]pyrimidin-1-yl)piperidin-1-yl)-2-(methylsulfonyl)pyrimidine-5-carboxylate] | selectively reduced BTK Y^223 phosphorylation | remaining binding at 1 µM ([8]; read-out: %Control @1000nM): 91%; %Control difference versus reference Ib at 1 µM ([9]; @1000nM): 3%; remaining binding at 1 µM ([9]; @1000nM, read-out: %Control): 100%; remaining binding at 1 µM ([9]; read-out: %Control @1000nM): 100%; remaining binding at 1 µM ([10]; @1000nM, read-out: %Control): 100%; remaining binding at 1 µM ([10]; read-out: %Control @1000nM): 100%; difference in %Control versus compound Ib at 1 µM ([11]; @1000nM): 94.5%; remaining binding at 1 µM ([11]; @1000nM, read-out: %Control): 100%; remaining binding at 1 µM ([11]; read-out: %Control @1000nM): 100%; remaining binding at 1 µM ([12]; @1000nM, read-out: %Control): 87%; remaining binding at 1 µM ([12]; read-out: %Control @1000nM): 87%; remaining binding at 1 µM ([13]; @1000nM, read-out: %Control): 97%; remaining binding at 1 µM ([13]; read-out: %Control @1000nM): 97%
2 | 24 | 92 | 92 | 21.5 | 26 | 26 | 11 | 11 | 29 | 73 | 73 | 60 | 60 | 0.75 | 0.75 | 0.75 | > 99 | -4 | 92 | COC(=O)c1cnc(S(C)(=O)=O)nc1N1CCCC(n2nc(-c3ccc(Oc4ccccc4)cc3)c3c(N)ncnc32)C1 (stereo not drawn) [Compound 8b, Methyl 4-(3-(4-Amino-3-(4-phenoxyphenyl)-1H-pyrazolo[3,4-d]pyrimidin-1-yl)piperidin-1-yl)-2-(methylsulfonyl)pyrimidine-5-carboxylate] | selectively reduced BTK Y^223 phosphorylation | remaining binding at 1 µM ([8]; read-out: %Control @1000nM): 92%; %Control difference versus reference Ib at 1 µM ([9]; @1000nM): -11%; remaining binding at 1 µM ([9]; @1000nM, read-out: %Control): 86%; remaining binding at 1 µM ([9]; read-out: %Control @1000nM): 86%; remaining binding at 1 µM ([10]; @1000nM, read-out: %Control): 94%; remaining binding at 1 µM ([10]; read-out: %Control @1000nM): 94%; difference in %Control versus compound Ib at 1 µM ([11]; @1000nM): 89.5%; remaining binding at 1 µM ([11]; @1000nM, read-out: %Control): 95%; remaining binding at 1 µM ([11]; read-out: %Control @1000nM): 95%; remaining binding at 1 µM ([12]; @1000nM, read-out: %Control): 49%; remaining binding at 1 µM ([12]; read-out: %Control @1000nM): 49%; remaining binding at 1 µM ([13]; @1000nM, read-out: %Control): 86%; remaining binding at 1 µM ([13]; read-out: %Control @1000nM): 86%
